Assay results published in article PMC5100981 (Antiviral research, 2016).
Like-named read-outs stand apart in the source and are kept apart here.

How the values were obtained:
[1] = tested on: Enterovirus D68 (Fermon strain); assay: CPE inhibition assay; assay type: cell-based; details: for EC50: Enterovirus D, RD, read-out: EC50, 50% effective (virus-inhibitory) concentration
[2] = tested on: Rhinovirus 87 (F02-3607 Corn strain); assay: CPE inhibition assay; assay type: cell-based
[3] = tested on: Enterovirus 71 (Tainan/4643/98 strain); assay: CPE inhibition assay; assay type: cell-based
[4] = tested on: EV-D68 (US/KY/14-18953 strain); assay: Virus yield reduction; assay type: cell-based, Enterovirus D68
in vitro [5] = details: human
EV-D68/US/KY/14-18953 [6] = assay: CPE inhibition; assay type: cell-based, Enterovirus D68; details: for SI, selectivity index (CC50 / EC50): A549 cells; for EC50: Enterovirus D, EVD68, A549, read-out: EC50, 50% effective concentration
EV-D68/US/KY/14-18953 [7] = assay: CPE inhibition; assay type: cell-based, Enterovirus D68; details: for EC50: Enterovirus D, EVD68, HeLa Ohio1, read-out: EC50, 50% effective concentration; for SI, selectivity index (CC50 / EC50): HeLa-Ohio-1 cells
in vitro [8] = details: human, uninfected A549 lung carcinoma cells, stationary monolayers
[9] = tested on: RD human rhabdomyosarcoma cells
EV-71 = details: ref Zhang et al., 2013; cited from earlier work
[10] = Enterovirus D68/Fermon, RD cells
[11] = EV-D68 US/KY/14-18953, RD cells

SMILES | SI, selectivity index (CC50 / EC50) [1] | EC50 [1] [µM] | SI, selectivity index (CC50 / EC50) [2] | SI, selectivity index (CC50 / EC50) [3] | SI, selectivity index (CC50 [from Table 1] / EC90) [4] | CC50 (in vitro [5]) [µM] | SI, selectivity index (CC50 / EC50) [1, 10] | SI, selectivity index (CC50 / EC50) ([2]; Rhinovirus 87, RD cells) | SI, selectivity index (CC50 / EC50) ([3]; Enterovirus 71, RD cells) | SI, selectivity index (CC50 [from Table 1] / EC90) [4, 11] | SI, selectivity index (CC50 / EC50) (EV-D68/US/KY/14-18953 [6]) | EC50 (EV-D68/US/KY/14-18953 [6]) [µM] | EC50 (EV-D68/US/KY/14-18953 [7]) [µM] | SI, selectivity index (CC50 / EC50) (EV-D68/US/KY/14-18953 [7]) | CC50 (in vitro [5]; uninfected RD rhabdomyosarcoma cells, stationary monolayers) [µM] | CC50 (in vitro [8]) [µM] | Overall activity against EV-D68 virus (in words) ([4]; CPE inhibited at much lower concentration than virus yield) | CC50 [9] [µM] | Treatment of EV-71 infection in suckling mice (mortality and clinical scores) (EV-71)
Nc1cc2nc[nH]c2c(=O)[nH]1 [3-Deazaguanine, 3-deazaguanine] | 54 | 6.7 ± 1.6 | 45 | 5 | 45 | 360 ± 227 | – | – | – | – | – | – | – | – | – | – | – | – | –
CC(C)S(=O)(=O)n1c(N)nc2ccc(/C(=N/O)c3ccccc3)cc21 [Enviroxime, enviroxime] | – | 0.27 ± 0.19 | – | – | – | – | 352 | 500 | 92 | 156 | 89 | 0.77 ± 1.1 | 1.7 ± 0.72 | 45 | 66 ± 28 | 68 ± 13 | – | – | –
CCOC(=O)c1ccc(OCCC2CCN(c3ccc(C)nn3)CC2)cc1 [Pirodavir, pirodavir] | – | 7 ± 3 | – | – | – | – | 3 | – | 24 | <1 | 13 | 11 ± 7.2 | 6.1 ± 2.8 | 5.3 | – | – | poorly effective | 32 ± 18 | –
Cc1cc(CCCOc2c(C)cc(-c3noc(C(F)(F)F)n3)cc2C)on1 [Pleconaril, pleconaril] | 87 | 0.13 ± 0.09 | 7 | – | 54 | 11.3 ± 6.3 | – | – | – | – | – | – | – | – | – | – | – | – | –
NC(=O)c1ncn([C@@H]2O[C@H](CO)[C@@H](O)[C@H]2O)n1 [Ribavirin, ribavirin] | – | 147 ± 74 | – | – | – | 1100 ± 450 | – | – | – | – | – | – | – | – | – | – | – | – | –
CCOC(=O)/C=C/[C@H](C[C@@H]1CCNC1=O)NC(=O)[C@@H](CC(=O)[C@@H](NC(=O)c1cc(C)on1)C(C)C)Cc1ccc(F)cc1 [Rupintrivir, rupintrivir] | 60910 | 0.0022 | 25280 | 7450 | 33,500 | 134 ± 21 | – | – | – | – | – | – | – | – | – | – | – | – | effective
